Laboratory results reported in US20180050034A1, “ANTIFUNGAL TREATMENT OF CROHN'S DISEASE” (Gerbe Labs Inc., priority 2016, published 2018).

Assays:
Type in all cases: cell-based
[1] = tested on: Co-cultivation of A. fumigatus + C. albicans (MYA3626 + ATCC 90028); experiment: Broth microdilution MIC assay against co-culture of fungal spores; details: Aspergillus fumigatus + Candida albicans co-culture; repeated MIC study (Table 4), agent alone; listed as Itraconazone
Method: Broth Microdilution Minimal Inhibitory Concentration (MIC) assays were performed to obtain the MIC values for Itraconazole and Ketoconazole with an antibiotic (Vancomycin or Tobramycin or Amikacin) against the two fungal strains.
The strains were maintained as a frozen glycerol stocks at −80° C. The fungal strains were prepared by thawing a glycerol stock, streaking and growing onto Sabouraud's Dextrose Agar (SDA) plates, overnight at 35±2° C. in aerobic conditions and used for the assay.
Antifungal agents: Itraconazole (Cat #16657, Lot #087K1322), Ketoconazole (Cat # K1003, Lot # SLBR1290V). Stocks were prepared in appropriate solvents following the CLSI guidelines. See, for example, Reference method for broth dilution antifungal susceptibility testing of filamentous fungi, approved standard, 2nd ed. CLSI document M38-A2, vol. 28. CLSI, Wayne, Pa. (2008).
The completely synthetic medium RPMI-1640 (with glutamine, without bicarbonate, and with phenol red as a pH indicator) was buffered with 0.165 mol/L MOPS (3-[N-morpholino] propanesulfonic acid) buffer was used as the growth medium for the fungal strains. Overnight cultures of the fungal strains were grown on Difco™ Sabouraud's Dextrose Agar (SDA) plates at 35° C. To induce conidium and sporangiospore formation, the culture plates were transferred to incubator and grown for 5-7 days 30° C. or until good sporulation was obtained. […]

[2] = tested on: Aspergillus fumigatus+Candida albicans co-culture; experiment: Checkerboard synergy assay, co-culture (FIG. 7, Table 4); details: combination of Aspergillus fumigatus and Candida albicans; read-out: MIC (agent alone, read from checkerboard FIG. 7)
Method: This study evaluated the synergistic activity of 2 antifungal agents (Itraconazole and Ketoconazole) with an antibiotic (Vancomycin or Tobramycin or Amikacin) against the spores of 2 fungi; Aspergillus fumigatus MYA3626 and Candida albicans ATCC 90028; individually as well as in co-cultivation (Aspergillus fumigatus+Candida albicans). Synergy testing was carried out as per checkerboard assay by Victor Lorian methodology. See, for example, Lorian, V. Antibiotics in Laboratory Medicine. Edition 5: (2005).
In vitro activity of the test articles were tested in combination by the Checkerboard assay. See, for example, Lorian, V. Antibiotics in Laboratory Medicine. Edition 5: (2005). The assay was carried out in duplicates. The starting concentrations for the test articles was determined as per the MIC data. Two-fold serial dilutions of 8×MIC for the antifungal agents; Itraconazole and Ketoconazole was performed separately. When Itraconazole and Ketoconazole were combined in a microtiter plate, the concentration of both agents was 2×MIC. […] The plates were incubated at 35° C. for 3-5 days. The assay plates were visually inspected to confirm the MIC endpoint and used to calculate the Fractional Inhibitory Concentration (FIC) Index to determine any synergistic interaction.
The FIC Index was calculated as follows: […]

Candida albicans = experiment: Culture sensitivity, Patient 7 isolate; details: Patient 7 Candida albicans culture
Text: (§1) The patient underwent the standard workup for CRS, sleep disorder, and nasal obstruction, plus our diagnostic skin test and sinus CT scan.

S. aureus, a bacteria = experiment: Culture sensitivity, Patient 7 isolate; details: Patient 7 bacterial culture
Text: as §1

Row | Compound | MIC [1] | MIC [2] | Culture sensitivity (Candida albicans) | Culture sensitivity (S. aureus, a bacteria)
1 | CCC(C)n1ncn(-c2ccc(N3CCN(c4ccc(OCC5COC(Cn6cncn6)(c6ccc(Cl)cc6Cl)O5)cc4)CC3)cc2)c1=O (centres unmarked) [Itraconazole] | 1 µg/mL | > 0.5 µg/mL |  | 
2 | CC(=O)N1CCN(c2ccc(OCC3COC(Cn4ccnc4)(c4ccc(Cl)cc4Cl)O3)cc2)CC1 (centres unmarked) [Ketoconazole] |  | > 4 µg/mL | sensitive | 
3 | NC[C@H]1O[C@H](O[C@H]2[C@H](O)[C@@H](O[C@H]3O[C@H](CO)[C@@H](O)[C@H](N)[C@H]3O)[C@H](N)C[C@@H]2N)[C@H](N)C[C@@H]1O [tobramycin] |  |  |  | sensitive
